Molecules are shown by their SMILES. pEC50: −log10 of the molar value.

Broadly, the pEC50 is the negative decadic logarithm of the EC50, by convention in mol/L.

In the assay the test system is secretion of TNF-α from LPS-stimulated human monocytes. The experiment in a line: LPS-induced TNF-alpha production in human THP-1 cell line. The format is cell-based. The conditions noted are these: Monocyte, read-out: EC50, inhibition of secretion of TNF-α from LPS-stimulated human monocytes. The procedure:
THP-1 (human, monocytic) cell line was purchased from the American Type Culture Collection (ATCC, Cat. No.TIB 202). Cell line was passaged three times per week in RPMI 1640 (GIBCO), supplemented with 10% heat-inactivated fetal bovine serum (FBS; Omega Scientific, Tarzana, Calif.), 2 mM L-glutamine, 100 U/ml penicillin and 100 μg/ml streptomycin (Gibco/Invitrogen, Carlsbad, Calif.) in a humidified incubator with 95% air and 5% CO2 at 37° C.
For the assay THP-1 cells were harvested, counted and suspended at 1E6 cells/ml in culture medium. 200 μl of cell suspension was added to each well at 96 well plates to provide density of 2×10^5 cells per well. Serial dilutions of P38 compounds were prepared at final concentrations in culture medium from a 10 mM stock solution, and assayed in triplicate. Vehicle was prepared by adjusting culture medium to 0.1% v/v DMSO which corresponds to the concentration of DMSO in the wells with test compounds.
Cells were incubated in presence of the P38 inhibitor for 30 min. After that cells were stimulated with LPS (E. coli 026:B6, 1 μg/ml) for 4 hr at 37° C. in a 5% CO2-incubator. Reaction was stopped by placing samples on ice and centrifuging for 10 min at 1500×g at 4° C. Cell supernatants were harvested and concentration of TNF—was determined by ELISA (BD Pharmingen, San Diego, Calif., Cat. No. 555212), following the manufacturer's instruction. Absorbance read and analyzed at 450 nm on a spectrophotometric ELISA plate reader (Labsystems Multiskan MCC/340). Replicate readings were averaged and the results are expressed as a percent of OD signal from control.
Turning to `CONC(=O)c1ccc(C)c(Nc2nc(NCC3CCCC(CN)C3)nc(NC3CCCCC3)n2)c1` (stereo not shown) [Compound 11], the pEC50 was 7.96. In the case of `CONC(=O)c1ccc(C)c(Nc2nc(NCC3CCCC(CN)C3)nc(N[C@H](C)C(C)(C)C)n2)c1` (stereo partly shown) [Compound 9] it was 7.48. In the case of `CONC(=O)c1ccc(C)c(Nc2nc(NCC3CCCC(CN)C3)nc(NC3CCCCC3C)n2)c1` (stereo not shown) [Compound 10] it was 7.66. `CONC(=O)c1ccc(C)c(Nc2nc(NCc3cccc(C)c3)nc(N[C@H](C)C(C)(C)C)n2)c1` [Compound 12]: the pEC50 was 6.91.

Values taken from patent US8119798B2, “P38 kinase inhibitors” (GlaxoSmithKline LLC, priority 2006, dated 2012).
